Data published in patent publication US12059399B2, “Methods for alleviating kidney disease and fibrosis of organ” (Getwing Biotechnology Medical Co., Ltd, priority 2021, dated 2024).

Columns and labels:
[1] = test system: left obstructed kidney of mice subjected to UUO surgery; experiment: Histological analysis of renal tissues from the left obstructed kidney after UUO surgery (H&E, Masson's Trichrome, α-SMA and vimentin staining); format: in vivo, Male C57BL/6J mice
Protocol: (§1) The UUO surgery was performed in accordance with the Guidelines for Care and Use of Laboratory Animals. Specifically, during the UUO surgery, the respective mouse was anesthetized through intraperitoneal injection of pentobarbital (Manufacturer: Merck KGaA, Darmstadt, Germany; Catalogue no.: P3761) at a dose of about 60 mg per kg of body weight. The skin tissue and the subcutaneous muscle layer at the left side of the abdominal midline were incised, so that the left kidney was exposed and the left ureter was identified and dissociated. The left ureter was dissected out with scissors and ligated with silk surgical sutures (size: 4-0) at an upstream location approximately 1 cm from the renal hilum and at a downstream location approximately 1 cm from the renal hilum. After confirmation that no bleeding and no urine leakage occurred, the incised subcutaneous muscle layer and skin tissue were stitched.
(§2) The male C57BL/6J mice described in section 2 of the “General Experimental Materials” were randomly divided into 5 groups, namely, a sham-operated group (SOG), a pathological control groups (PCG), and three experimental groups (i.e., experimental group 1 (EG1), experimental group 2 (EG2), and experimental group 3 (EG3)) (n=3 per group). After being raised in the animal room for one week, the mice in the PCG and the EG1 to EG3 were subjected to the UUO surgery as described in section 1 of the “General Experimental Procedures”. The mice in the SOG were subjected to a similar surgical procedure, except that the ureter of the mice in the SOG was not obstructed, i.e., the left ureter was not dissected out and ligated. After surgery, during the entire experimental process which lasted 7 days, all the mice were placed in iron cages.
(§3) The mice of the EG1 to EG3 were respectively administered, via oral gavage, with the ferrous amino acid chelate described in section 1 of the “General Experimental Materials” at a dose of 5 mg/kg, 125 mg/kg and 250 mg/kg of body weight once daily (in the morning) for 7 days. At the end of Day 7, a blood sample and a urine sample, each in a volume of 0.2 mL, were obtained from each mouse in the EG1 to EG3. The mice of the SOG and the mice of the PCG received no treatment (i.e., 0 mg/kg of ferrous amino acid chelate), and at the end of Day 7, a blood sample and a urine sample, each in a volume of 0.2 mL, were obtained from each mouse.
The renal tissues were extracted from the left obstructed kidney of a selected mouse in each group. Fixation was conducted using 10% formalin, and dehydration was conducted using a series of graded alcohols (lower to higher concentrations) and xylene, followed by embedding in paraffin. A tissue section of […] was obtained and placed on a slide, followed by heating in an oven at […] overnight for melting the paraffin. Xylene was used to remove the melted paraffin, and rehydration was conducted with graded alcohols (higher to lower concentrations). Endogenous peroxidase was removed using 1% H2O2, followed by washing with a phosphate-buffered saline (PBS) buffer, so as to increase the permeability. After incubating the tissue section with fetal bovine serum (FBS) to prevent binding of some non-specific antigens, water was removed by suction.
For staining of α-smooth muscle actin (SMA), a primary antibody against α-smooth muscle actin (SMA)(α-SMA) (Manufacturer: Abcam PLC; Catalogue no.: ab5694) with a dilution ratio of 1:400 was added to the tissue section at room temperature, and the reaction was allowed to proceed for 2 hours at room temperature. Thereafter, washing was conducted twice with PBS to remove unbound primary antibodies. A Polymer-HRP secondary antibody (Manufacturer: Golden Bridge International, Inc., USA) was added. One hour later after the reaction, washing was conducted twice with PBS. […]

[2] = test system: mice subjected to UUO surgery; experiment: Biochemical analysis of blood and urine samples of mice 7 days after unilateral ureter obstruction (UUO) surgery; format: in vivo, Male C57BL/6J mice
Protocol: Male C57BL/6J mice (having a weight of about 25 g) purchased from the National Laboratory Animal Center (Taipei, Taiwan) were kept in an animal room under the following laboratory conditions: a temperature of about 24° C. and a 12-hour light/12-hour dark cycle. Diets and water were provided ad libitum for all of the experimental animals.
as §1, §2, §3
The blood sample of the respective mouse was subjected to measurements of alanine transaminase (ALT), aspartate transaminase (AST), blood urea nitrogen (BUN) and creatinine levels for evaluation of kidney health. The urine sample of the respective mouse was subjected to quantification of urea nitrogen and creatinine levels for evaluation of kidney health. For each of the aforesaid parameters, the differences between each group were analyzed according to the procedures as described in the section 2 of the “General Experimental Procedures”.

[3] = test system: fibrous proteins (α-SMA, collagen I fibers, and vimentin) in kidney tissues; experiment: Protein expression analysis (Western blot) of renal tissues from the left obstructed kidney after UUO surgery; format: in vivo, Male C57BL/6J mice; conditions: 7 days, vs PCG
Protocol: as §1, §2, §3
The renal tissues were extracted from the left obstructed kidney of a selected mouse in each group, and then lysed with NETN lysis buffer (20 mM Tris, 150 mM NaCl, 1 mM EDTA, and 0.5% NP-40) on ice. The resultant cell lysates were centrifuged, and the supernatants were collected to serve as total protein samples.
Protein samples in equal amounts (i.e., 20 μg) as determined by Bradford assay were resolved in 8% or 10% sodium dodecyl sulfate-polyacrylamide (SDS-PAGE) gels, and then subjected to immunoblot analysis. To be specific, the separated proteins were transferred to Immobilon®-P polyvinylidene difluoride (PVDF) membranes (Manufacturer: Merck Millipore, NJ, USA). The blotted PVDF membranes thus obtained were blocked with Tris-buffered saline (TBS) and 0.1% (vol/vol) polysorbate 20 (also known as Tween 20) containing 5% non-fat dry milk for 1 hour at room temperature, followed by washing with TBST 3 times, each time for […], and then probing with the indicated primary antibodies overnight. The probed membranes were washed with a TBST buffer (a mixture of TBS and polysorbate 20) 3 times, each time for 5 minutes, and were then incubated with secondary antibodies, such as a horseradish peroxidase (HRP)-conjugated anti-mouse antibody or an HRP-conjugated anti-rabbit antibody for 60 minutes at room temperature. HRP was detected using ECL detection reagents (Merck Millipore, Darmstadt, Germany), and band intensity was determined by ImageQuant™ LAS-4000 luminescence image analyzer (GE Healthcare).
Anti-glyceraldehyde 3-phosphate dehydrogenase (GAPDH) was used as a loading control.

HK-2 cells [4] = experiment: Cytotoxicity analysis (MTT) in HK-2 cells; format: cell-based, Human; conditions: EG1 to EG6: 50, 100, 250, 500, 750 and 1000 μg/mL; 24 hours; vs control group
Protocol: (§4) Human kidney proximal tubular epithelial cell line HK-2 (from normal adult human renal cortex) used in the following experiments was obtained from, the Bioresource Collection and Research Center (BCRC) of the Food industry Research and Development Institute (FIRDI) (No. 331, Shih-Pin Rd., Hsinchu City 300, Taiwan).
(§5) The HK-2 cells were incubated in 10-cm Petri dishes, each of which contained Dulbecco's modified Eagle's medium/Ham's Nutrient Mixture F-12 (DMEM/F12) (Manufacturer: Thermo Fisher Scientific, WA, USA; Catalogue no.: 12500062) supplemented with HyClone™ 1% (v/v) penicillin-steptomycin (Manufacturer: Cytiva; Catalogue no.: SC30010). […]
First, the HK-2 cells described in section 3 of the General Experimental Materials were seeded at a concentration of 2×10^4 cells per well into wells of 6-well culture plates each containing DMEM/F-12 supplemented with 1% (v/v) penicillin-steptomycin, and then were divided into 7 groups, namely, a control group (CG), and six experimental groups (i.e., experimental groups 1 to 6 (EG1 to EG6)), followed by cultivation in an incubator with culture conditions set at 37° C. and 5% CO2 for 24 hours. […] Subsequently, the medium in each group was collected and subjected to light absorbance measurement at a wavelength of 570 nm (OD570) using a spectrophotometer. […]

HK-2 cells [5] = experiment: Migration of HK-2 cells into the cell-free wound area, induced by TGF-β1 (EMT); format: cell-based, Human; conditions: 100 μg/mL with 50 ng/mL TGF-β1; 24 hours; vs TGF-β1 alone (comparative group 1)
Protocol: as §4
as §5, with “SC30010). Subsequently, cultivation was conducted in an incubator with culture conditions set at 37° C. and 5% CO2. Medium change was performed every 2 days.” for “SC30010).”
First, the HK-2 cells described in section 3 of the General Experimental Materials were seeded at a concentration of 4×10^4 cells per well into wells of 6-well culture plates each containing DMEM supplemented with 1% (v/v) penicillin-steptomycin, and then were divided into 4 groups, namely, a control group, a comparative group 1, a comparative group 2, and an experimental group, followed by cultivation until reaching 90% of confluence. […] Cell migration was assessed at the 0 hour and 24th hour using an inverted optical microscope.

[6] = 125 and 250 mg/kg (EG2, EG3) compared with 5 mg/kg (EG1)
[7] = EG1 to EG3: 5, 125 and 250 mg/kg oral, 7 days, vs PCG
[8] = EG1 to EG3: 5, 125 and 250 mg/kg oral gavage once daily for 7 days, between SOG, PCG and EG1 to EG3
[9] = EG1 and EG2: 5 and 125 mg/kg oral

Substance: ferrous glycinate chelate [ferrous amino acid chelate]
- degree of reduction of interstitial deposition of collagen fibers and muscle fibers [1, 6]: greater in EG2 and EG3 compared with those in EG1
- degree of reduction of tubular dilation [1, 6]: greater in EG2 and EG3 compared with those in EG1
- amount of actin fibers (α-SMA staining) [1, 7]: significantly reduced compared with those in the PCG
- interstitial deposition of collagen fibers and muscle fibers (Masson's Trichrome staining) [1, 7]: significantly reduced compared with those in the PCG
- number of cells undergoing fibrosis (vimentin staining) [1, 7]: significantly reduced compared with those in the PCG
- tubular dilation (H & E staining) [1, 7]: significantly reduced compared with those in the PCG
- blood urea nitrogen level ([2]; EG1 to EG3: 5, 125 and 250 mg/kg oral gavage once daily for 7 days, UUO mice, vs PCG): significantly reduced compared to that in the PCG
- urine urea nitrogen level ([2]; EG1 to EG3: 5, 125 and 250 mg/kg oral gavage once daily for 7 days, among PCG, EG1, EG2 and EG3): no significant difference
- ALT level in the blood sample [2, 8]: no significant difference
- AST level in the blood sample [2, 8]: no significant difference
- creatinine level in the blood sample [2, 8]: no significant difference
- urine creatinine level ([2]; EG2 and EG3: 125 and 250 mg/kg oral gavage once daily for 7 days, UUO mice, vs PCG): significantly reduced compared to that in the PCG
- expression of collagen I (Western blot) [3, 9]: no significant difference
- expression of α-SMA (Western blot) [3, 9]: no significant difference
- expression level of vimentin (Western blot) ([3]; EG2 and EG3: 125 and 250 mg/kg oral): significant reduction in expression level
- expression of collagen I (Western blot) ([3]; EG3: 250 mg/kg oral): significantly reduced
- expression of α-SMA (Western blot) ([3]; EG3: 250 mg/kg oral): significantly reduced
- expression level of vimentin (Western blot) ([3]; from EG1 to EG3: 5, 125, 250 mg/kg oral): gradually reduced from EG1 to EG3
- viability of the HK-2 cells (cell viability rate, MTT) (HK-2 cells [4]): not significantly affected
- migration of HK-2 cells into the cell-free wound area (HK-2 cells [5]): decreased capability to migrate into the cell-free wound area
